Results taken from patent US20100099634A1, “MACROLIDE COMPOUNDS ENDOWED WITH ANTIINFLAMMATORY ACTIVITY” (Zambon S.p.A, priority 2006, published 2010).

Key:
[1] = test system: oedema in mouse ear induced with PMA (phorbol myristate acetate); test: Acute contact dermatitis: TPA-induced ear oedema in mice; assay type: in vivo; details: CD1 mice, 500 μg/ear topical in TPDS 30 minutes before 0.01% TPA, ear weight six hours later, vs TPA alone
Description: The antiinflammatory activity was evaluated by means of inhibition of the oedema in mouse ear induced with PMA (phorbol myristate acetate). A) Acute Contact Dermatitis Groups of 5 CD1 mice (18-24 g) were used. All the macrolide derivatives were dissolved in Trans-phase Delivery System (TPDS), a carrier containing 10% benzyl alcohol, 40% acetone and 50% isopropanol. 15 microlitres of the compounds (500 μg/ear), dissolved in TPDS, were applied topically to the inner surface of an ear; 30 minutes later, 12 microlitres of a solution of tetradecanoylphorbol acetate (TPA) at a concentration of 0.01% dissolved in acetone were applied to the same area. Six hours later, the animals were sacrificed by inhalation of CO2. The degree of oedema was calculated by subtracting the weight of a specified section of the untreated ear from that of the contralateral treated ear. To determine the degree of remission of the oedema, the weight difference of the groups treated with TPA+macrolides was then compared with the groups treated with TPA alone. The activity of the macrolides was measured by using the modified method of Zunic et al. (1998): MDL (Lysyl) GDP, a non-toxic muramyl dipeptide derivative inhibits cytokine production by activated macrophages and protects mice from phorbol ester- and oxazolone-induced inflammation (J. Invest. Dermatol., 111(1), 77-82).

[2] = test system: Escherichia coli (ATCC 25922); test: Antibiotic activity by turbidimetric assay of bacterial growth; assay type: cell-based; details: for IC20: concentration that inhibits growth of E. coli ATCC 25922 by 20%; for IC20 / IC50 / IC80: maximum test concentration 100 μM, mean of at least three incubation times; for IC50: concentration that inhibits growth of E. coli ATCC 25922 by 50%; for IC80: concentration that inhibits growth of E. coli ATCC 25922 by 80%; for activity towards bacterial growth (in words): turbidimetric assay, strains sensitive to erythromycin and telithromycin

| SMILES | IC50 [2] [µM] | Oedema (% inhibition) [1] [%] | IC20 ([2]; Escherichia coli, ATCC25922) [µM] | IC50 ([2]; Escherichia coli, ATCC25922) [µM] | IC80 ([2]; Escherichia coli, ATCC25922) [µM] | activity towards bacterial growth (in words) [2] | IC20 [2] [µM] | IC80 [2] [µM] |
| --- | --- | --- | --- | --- | --- | --- | --- | --- |
| CC[C@H]1OC(=O)[C@H](C)C(=O)[C@H](C)[C@@H](O[C@@H]2O[C@H](C)C[C@H](N(C)C)[C@H]2O)[C@](C)(OC)C[C@@H](C)C(=O)[C@H](C)[C@H]2N(CCCCn3cnc(-c4cccnc4)c3)C(=O)O[C@]12C [Telithromycin] | – | 79.7 | 2.7 | 5.7 | 14.9 | substantial inhibition of the bacterial development | – | – |
| CC[C@H]1OC(=O)[C@H](C)[C@@H](O[C@H]2C[C@@](C)(OC)[C@@H](O)[C@H](C)O2)[C@H](C)[C@@H](O[C@@H]2O[C@H](C)C[C@H](N(C)C)[C@H]2O)[C@](C)(O)C[C@@H](C)C(=O)[C@H](C)[C@@H](O)[C@]1(C)O [Erythromycin] | – | 42 | 3 | 7.8 | 24.3 | substantial inhibition of the bacterial development | – | – |
| CC[C@H]1OC(=O)[C@H](C)[C@@H](O[C@H]2C[C@@](C)(OC)[C@@H](O)[C@H](C)O2)[C@H](C)[C@@H](O[C@@H]2O[C@H](C)C[C@H](N(C)C)[C@H]2O)[C@](C)(O)C[C@@H](C)CN(C)[C@H](C)[C@@H](O)[C@]1(C)O [Azithromycin] | – | 40 | – | – | – | – | – | – |

Second part, led by results:

| IC50 [2] [µM] | SMILES | Oedema (% inhibition) [1] [%] | IC20 ([2]; Escherichia coli, ATCC25922) [µM] | IC50 ([2]; Escherichia coli, ATCC25922) [µM] | IC80 ([2]; Escherichia coli, ATCC25922) [µM] | activity towards bacterial growth (in words) [2] | IC20 [2] [µM] | IC80 [2] [µM] |
| --- | --- | --- | --- | --- | --- | --- | --- | --- |
| > 100 | CC[C@H]1OC(=O)[C@H](C)C(=O)[C@H](C)[C@@H](O[C@@H]2O[C@H](C)C[C@H](N(C)C(=O)c3ccccc3)[C@H]2O)[C@](C)(OC)C[C@@H](C)C(=O)[C@H](C)[C@H]2N(CCCCn3cnc(-c4cccnc4)c3)C(=O)O[C@]12C [Compound 2, 3′-demethyl-3′-benzoyltelithromycin] | 81.8 | – | – | – | – | > 100 | > 100 |
| > 100 | CCC1OC(=O)C(C)C(=O)C(C)C(OC2OC(C)CC(N(C)C(C)=O)C2O)C(C)(OC)CC(C)C(=O)C(C)C2N(CCCCn3cnc(-c4cccnc4)c3)C(=O)OC12C (stereo not shown) [Compound 1, 3′-demethyl-3′-acetyltelithromycin] | 81.7 | – | – | – | – | > 100 | > 100 |
